Assay results from paper PMC7829355, “Antimicrobial Activity of Lipopeptide Biosurfactants Against Foodborne Pathogen and Food Spoilage Microorganisms and Their Cytotoxicity” (Frontiers in Microbiology, 2021).
Converted amounts (≈) assume the structure as drawn. “And” between values parts separate entries of the source, which are not always exact repeats. Identical values can stand only once. Like-named read-outs stand apart in the source and are kept apart here.

How the values were obtained:
[1] = tested on: Candida krusei ATCC 6258; test: Antifungal susceptibility against yeast, broth microdilution in RPMI-1640; type: cell-based; details: for MIC: Pichia kudriavzevii, ATCC6258, C. krusei, RPMI-1640 liquid media
Protocol: The antifungal susceptibility test against yeasts was performed according to the broth microdilution method, as described previously ([Urbañski et al., 2002]; [Schwalbe et al., 2007]). Candida krusei ATCC 6258 was used as the quality control organism, to verify that antifungal concentrations were prepared properly. In addition, amphotericin B, an effective antifungal antibiotic produced by Streptomyces nodosus and part of the WHO List (World Health Organization) of Essential Medicines, was used as a reference compound. The test medium used was RPMI-1640 (with glutamine, without bicarbonate and with a pH indicator) broth with [3-(N-morpholino)]-propanesulfonic acid (MOPS) buffer. All tests were performed in U-shaped 96-well plates. Three technical replicates of each assay were carried out on the same day with the same culture and chemical compound with the aforementioned experiment repeated also in triplicate on different days using different cultures (biological replicates) resulting in a total of nine replicates for each assay. The yeasts tested were Zygosaccharomyces bailli NCYC 464 and Debaryomyces hansenii NCYC 102.

[2] = tested on: Paecilomyces variotii; test: Antifungal susceptibility against filamentous fungi, broth microdilution; type: cell-based
Protocol: (§1) In this set of experiments, Candida krusei ATCC 6258 and amphotericin B were used to perform quality control tests for validation. As mentioned above, the test medium used was RPMI-1640 broth with MOPS buffer. Tests were performed in U-shaped 96-well plates in triplicates and the OD450nm was recorded after 7 days of incubation at 30°C. The fungi tested were Rhizopus stolonifer IMI 017314 and Paecilomyces variotii and Byssochamys fulva IMI 040021.

[3] = tested on: Rhizopus stolonifer IMI 017314; test: as above; type: cell-based
Protocol: as §1

[4] = tested on: Byssochamys fulva IMI 040021; test: as above; type: cell-based, Byssochlamys fulva
Protocol: as §1

[5] = tested on: Escherichia coli; design: method as in Dhanarajan et al., 2016; details: purified surfactin homologues; ref Dhanarajan et al., 2016; cited from earlier work
[6] = tested on: Caco-2 cells; details: cited from earlier work; for IC50 cytotoxicity group, Caco cells: published IC50, MTT, ref literature review and EFSA database (Figure 4); for IC50: Caco-2 cells, ref Zhao et al.
[7] = tested on: Vero cells; details: cited from earlier work; for IC50 cytotoxicity group, Vero cells: published IC50, MTT, ref literature review and EFSA database (Figure 4)
[8] = tested on: R. stolonifer; design: method as in Liu et al., 2014; details: ref Liu et al., 2014; cited from earlier work
[9] = tested on: Caco-2 cells
[10] = tested on: Salmonella enterica NCTC 5188; test: Antibacterial susceptibility, broth microdilution MIC; type: cell-based; details: NCTC5188, S. enterica, 24 h
[11] = tested on: Bacillus cereus MR59; test: as above; type: cell-based; details: 24 h
Protocol: (§2) The antibacterial susceptibility testing was performed following the broth microdilution methodology, as described previously ([Schwalbe et al., 2007]), against both Gram-negative and Gram-positive foodborne pathogens and spoilage bacteria. The bacteria used were: Pseudomonas aeruginosa NCTC 10332, Salmonella enterica NCTC 5188, Escherichia coli K-12, Bacillus cereus MR59, Listeria monocytogenes 10403S, Carnobacterium divergens NCFB 2763, Leuconostoc mesenteroides NCIMB 08023, and Brochothrix thermosphacta NCDO 1676.
(§3) Two-fold dilutions were performed and 100 μL of each dilution was placed in each column of a flat bottomed 96-well plate. One column of the plate contained only the growth medium and served as the positive control while in another column contained 200 μL of the growth medium with the highest concentration of the lipopeptide tested (1,000 mg/L) and served as the negative control. Apart from the column that served as the negative control, the rest of the wells were inoculated with 100 μL of the bacterial culture tested. For the bacterial suspension preparation, cultures were incubated overnight in the appropriate medium (MHB or TSB). Bacterial density was adjusted to 0.5 McFarland and suspensions were subsequently diluted 1000 times using the growth test medium. The 96-well plates were then incubated at either 30or 37°C, depending on the optimal growth temperature of each microorganism, for 24 h and the OD620nm was assessed. The minimum inhibitory concentration (MIC) was defined as the lowest concentration of the antimicrobial agent tested that prevented any discernible growth after 24 h incubation.

[12] = tested on: Brochothrix thermosphacta NCDO 1676; test: as above; type: cell-based; details: food preservatives, 24 h
Protocol: as §2, §3

[13] = tested on: Carnobacterium divergens NCFB 2763; test: as above; type: cell-based; details: C. divergens
Protocol: as §2, §3

[14] = tested on: Escherichia coli K-12; test: as above; type: cell-based; details: E. coli K-12, broth microdilution, 24 h
Protocol: as §2, §3

[15] = tested on: Leuconostoc mesenteroides NCIMB 08023; test: as above; type: cell-based; details: 24 h
Protocol: as §2, §3

[16] = tested on: Listeria monocytogenes 10403S; test: as above; type: cell-based; details: L. monocytogenes, 24 h
Protocol: as §2, §3

[17] = tested on: Pseudomonas aeruginosa NCTC 10332; test: as above; type: cell-based; details: 24 h
Protocol: as §2, §3

[18] = tested on: Gram-positive bacteria; test: Antibacterial broth microdilution MIC, summary over Gram-positive strains; type: cell-based; details: range over the Gram-positive strains; read-out: MICs for Gram-positive bacteria
[19] = tested on: C. divergens; test: Nisin-lipopeptide combinations, broth microdilution checkerboard panel; type: cell-based, Carnobacterium divergens; details: regardless of the surfactin concentrations; data not shown
Source text: For testing the antibacterial activity by combining nisin and lipopeptides, the broth microdilution assay described above was used, following the broth microdilution checkerboard panel ([Schwalbe et al., 2007]).

[20] = tested on: Vero SF cells; test: Cytotoxicity assay (CCK8, WST-8)
Protocol: The Vero SF cells line is recommended by EFSA to assess the toxigenic potential of Bacillus species used in animal nutrition ([EFSA, 2014]). Cells were cultured in Dulbecco’s modified Eagle’s medium supplemented with 10% FCS, 1% glutamine, and 1% penicillin-streptomycin. After 48 h, cell culture medium was replaced by fresh medium containing the tested compounds in various concentrations.
Cytotoxicity was determined through a commercial kit from SIGMA Aldrich (Saint-Louis, United States) named Cell Counting kit 8 (CCK8). This test is based on the water-soluble tetrazolium salt (WST-8) reduction by the dehydrogenase of the living cells only inducing the production of a yellow color formazan dye which is directly proportional to the number of cells. Twenty-four hours after addition the compounds, the WST-8 was added to the medium (100 μL/mL). After 2h incubation, absorption at […] was measured in a microplate-reader (Microplates reader SpectraMax® iD3, Molecular Devices, San Jose, United States) and values were expressed as percent of control.
As explained above, since some of the lipopeptides have limited solubility in aqueous solutions, prior to their cytotoxicity testing, the effect of the DMSO at the levels used to solubilize the lipopeptides, was assessed. […]

[21] = tested on: Caco-2 cells; test: Cytotoxicity assay (CCK8, WST-8); details: estimated IC50 of this study, 24 h of contact
[22] = nisin alone, lipopeptide alone, or lipopeptide with nisin at fixed 10 mg/L

C[C@@H]1[C@H](O)[C@@H](C)/C=C/C=C/C=C/C=C/C=C/C=C/C=C/[C@H](O[C@@H]2O[C@H](C)[C@@H](O)[C@H](N)[C@@H]2O)C[C@@H]2O[C@](O)(C[C@@H](O)C[C@@H](O)[C@H](O)CC[C@@H](O)C[C@@H](O)CC(=O)O[C@H]1C)C[C@H](O)[C@H]2C(=O)O [Amphotericin B, amphotericin B]
MIC ([1]; 24 h growth, read-out: MIC (mg/L) 24h): 0.5 mg/L (≈ 0.541 µM) | MIC ([1]; 48 h growth, read-out: MIC (mg/L) 48h): 0.5 mg/L (≈ 0.541 µM) | MIC ([2]; Paecilomyces variotii, 168 h, 7 days of growth, RPMI-1640 liquid media, read-out: P. variotii MIC): 0.06 µg/mL (≈ 0.0649 µM) | MIC ([3]; Rhizopus stolonifer, IMI017314, 168 h, 7 days of growth, RPMI-1640 liquid media, read-out: R. stolonifer MIC): 0.5 µg/mL (≈ 0.541 µM) | MIC ([4]; Paecilomyces fulvus, IMI040021, 168 h, 7 days of growth, RPMI-1640 liquid media, read-out: B. fulva MIC): 0.06 µg/mL (≈ 0.0649 µM)

surfactin C15
MICs [5]: 60 mg/L

Cc1ccc(C(C)C)cc1O [carvacol]
IC50 cytotoxicity group, Caco cells [6]: group 2 (group 2 with moderate cytotoxicity with IC50s between 10 and 100 mg/L) | IC50 cytotoxicity group, Vero cells [7]: group 2 (group 2 with moderate cytotoxicity with IC50s between 10 and 100 mg/L)

iturin
concentration at which growth of R. stolonifer is inhibited [8]: 100 mg/L

mycosubtilin
cytotoxicity compared to nisin (E234) [9]: three times less cytotoxic

O=C(O)CN(CCN(CC(=O)O)CC(=O)O)CC(=O)O [EDTA, ethylenediaminetetraacetic acid]
MIC [10]: 14600 µg/mL (≈ 50000 µM) | MIC ([11]; Bacillus cereus, MR59, B. cereus, read-out: MIC): 228 µg/mL (≈ 780 µM) | MIC ([12]; Brochothrix thermosphacta, NCDO1676, B. thermosphacta, read-out: MIC): 114 µg/mL (≈ 390 µM) | MIC ([13]; Carnobacterium divergens, NCFB2763, food preservatives, broth microdilution, 24 h, read-out: MIC): 55.6 µg/mL | MIC ([14]; Escherichia coli, K12, read-out: MIC): 14600 µg/mL (≈ 50000 µM) | MIC ([15]; Leuconostoc mesenteroides, NCIMB08023, L. mesenteroides, read-out: MIC): 114 µg/mL (≈ 390 µM) | MIC ([16]; Listeria monocytogenes, 10403S, read-out: MIC): 228 µg/mL (≈ 780 µM) | MIC ([17]; Pseudomonas aeruginosa, NCTC10332, P. aeruginosa, read-out: MIC): 7310 µg/mL (≈ 25000 µM) | MIC [18]: 190 µM to 780 µM and 55.6 µg/mL to 228 µg/mL

nisin
MIC ([11]; B. cereus): 6.71 µg/mL | MIC ([12]; B. thermosphacta): 0.10 to 0.20 µg/mL | MIC ([13]; food preservatives, broth microdilution, 24 h): 3.35 µg/mL | MIC ([13]; nisin): 1000 µM | MIC [14]: >107.3 µg/mL | MIC ([15]; L. mesenteroides): 1.68 µg/mL | MIC [16]: 6.71 µg/mL | MIC ([17]; P. aeruginosa): >107.3 µg/mL | Lipopeptide MIC (mg/L) C. krusei [1, 22]: >125 mg/L | Lipopeptide MIC (mg/L) P. variotii [2, 22]: >125 mg/L | Lipopeptide MIC (mg/L) R. stolonifer [3, 22]: >125 mg/L | Lipopeptide MIC (mg/L) B. fulva [4, 22]: >125 mg/L | MIC of nisin for C. divergens when combined with surfactin [19]: 3.35 µg/mL | IC50 cytotoxicity group, Vero cells ([20]; estimated IC50 of this study, 24 h of contact): group 1 (group 1 of molecules with low cytotoxicity, IC50 above 100 mg/L) | IC50 cytotoxicity group, Caco cells [21]: group three (group three with significant cytotoxicity with IC50 lower than 10 mg/L)

iturin A
IC50 [6]; 2018: 42 µg/mL | IC50 [6]; 2019: 28 µg/mL | IC50 cytotoxicity group, Caco cells [6]: group 2 (group 2 with moderate cytotoxicity with IC50s between 10 and 100 mg/L) | IC50 ([7]; Vero cells, ref EFSA Panel on Additives and Products or Substances used in Animal Feed [FEEDAP], 2017): around 16 mg/L | IC50 cytotoxicity group, Vero cells [7]: group 2 (group 2 with moderate cytotoxicity with IC50s between 10 and 100 mg/L)

fengycin [Fengycin (F)]
cytotoxicity compared to nisin (E234) [20]: less cytotoxic

C=O [formaldehyde (E240), formaldehyde]
IC50 cytotoxicity group, Caco cells [6]: group three (group three with significant cytotoxicity with IC50 lower than 10 mg/L) | IC50 cytotoxicity group, Vero cells [7]: group 3 (group three with significant cytotoxicity with IC50 lower than 10 mg/L)
